Data: article PMC11868579 (Nature Communications, 2024)

Key:
[1] = tested on: H1299 eIF4E-dTAG clones (C2-2, C3-1, N2-1, N3-2) and C3-1 rescue models; experiment: IncuCyte real-time cell growth of eIF4E-dTAG clones and rescue models; type: cell-based, human; details: for proliferation on co-treatment: 25 μM with dTAG^V-1
Experimental: Real time monitoring of cell growth was performed with the IncuCyte ZOOM live cell imaging system (Essen BioSciences, USA). Cells were seeded in 96 well plates (Corning, cat#353072) and treated on the next day. The resulting phase-contrast images were analysed using IncuCyte ZOOM 2018A software and results were expressed as percentage confluency of cells.

[2] = molecular target: T1, eIF4G binding to eIF4E (Homo sapiens, UniProt P06730); experiment: Co-immunoprecipitation with eIF4E antibody, immunoblot for eIF4G, SW620 lysates; type: biochemical; details: 1–100 µM, 30 min
T1 construct: endogenous in cells; host or cells: SW620 cells (lysates)
Experimental: (§1) Cells were harvested by trypsinisation and washed with PBS before lysis in MSD lysis buffer (150 mM NaCl, 20 mM Tris pH 7.5, 1 mM EDTA, 1 mM EGTA, 1% Triton X-100) containing protease inhibitors (Roche, complete mini tablet, cat# 11836153001) and phosphatase inhibitors (50 mM NaF and 100 mM Na3VO4). Lysate was placed on ice for 30 min and then cleared in a microfuge at 17,000 x g for 10 min at 4 °C. The protein concentration of the cleared lysate was determined by BCA assay (Pierce) and adjusted to 4 mg/ml with lysis buffer. […] 100 μl of lysate and 100 μl of beads were then incubated with shaking overnight at 4 °C. Samples were then washed 3x with 1 ml PBS, resuspended in 100 μl PBS and boiled for 10 min with 1x SDS-PAGE sample buffer containing 10 μl 1 mM DTT.
(§2) After seeding overnight in 6 well plates (Corning, cat#353046), cells were treated with compounds for the indicated times and concentration, harvested and the cell pellet lysed on ice in cell lysis buffer (Cell Signaling, cat#9803), supplemented with 1x Halt^TM protease inhibitor cocktail (Fisher Scientific, cat#78429) and cOmplete^TM protease inhibitor cocktail (Sigma-Aldrich, cat#11836153001) for 1 hr. Protein was quantified using BCA protein kit (Fisher Scientific, cat#23225). […] Quantitative densitometry analysis of protein bands was performed using Image J v1.53 software.

[3] = tested on: IRES-driven translation; experiment: HeLa in vitro translation assay, IRES-driven reporter; type: biochemical, human; details: for rLuc (IRES) luminescence normalized to DMSO control, Average: HeLa lysate IVT, n=3
Experimental: HeLa In vitro translation (IVT) assay kits were purchased from Thermo Fisher(cat#88882). Bicistronic reporter mRNA was prepared from using a CMV/T7-renilla luciferase-IRES(FDMV)-firefly luciferase reporter vector as template DNA (supplied by Oxford Genetics Ltd.) using Message Machine T7 Ultra transcription Kit (Thermo Fisher, cat# AM1345) to generate in vitro transcribed mRNA. DNA template was removed with Turbo DNase from the transcription kit and the mRNA purified using RNeasy columns (Qiagen, cat#74204). RNA concentration was adjusted to 1 µg/µl using a Nanodrop. In vitro translation assays were then set up using a HeLa IVT kit according to the manufacturer’s protocol. The reaction was analysed using Dual Glo luciferase reporter assays (Promega, cat#E2920). Compounds were diluted from 100x DMSO stocks 1:10 in PBS and 2.5 µl transferred to 96 well PCR plates (Starlab, cat#I1402-9700). 22.5 µl IVT reaction mix (1.5 mL HeLa lysate, 60 µl RNAsin (Promega, cat#N2115), 300 µl accessory proteins, 600 µl reaction buffer, 200 µl nuclease free water and 30 µl […] mRNA) was added and incubated for 30 min at 30 °C (PCR alphacycler 4, PCRmax, Stone, Staffordshire, UK). The samples were placed on ice for 10 min, then 10 µl was removed and transferred to a white 96 well assay plate (Corning, cat#3917). […]

[4] = molecular target: eIF4E:eIF4G interaction (Homo sapiens, UniProt P06730); experiment: Electro-chemiluminescent binding assay, eIF4E:eIF4G, H1299 cell lysates; type: biochemical; parameters: endogenous in cells; host or cells: HeLa, SW620 or H1299 cells (lysates; intact H1299 cells in A13); details: for endogenous eIF4E:eIF4G interaction, electro-chemiluminescent signal, Average: n=3, 0 μM control in r69
Experimental: This assay uses plates with carbon electrodes and electro-chemiluminescent labels (SULFO-TAGs) that are conjugated to detection antibodies. When an electric current is applied to the plate electrodes the SULFO-TAG labels will emit light that is measured to quantify analytes in the sample. […] The plates were washed with 3 ×150 µl/well MSD wash buffer (cat#R61AA-1; 0.2% Tween-20 in PBS), then blocked with 150 µl/well block buffer (MSD, cat# R93AA) for 1 h. […] The incubated plates were washed 4x in 150 µl in MSD wash buffer and were re-blocked by the addition of 25 μl of blocking buffer containing a 1:500 dilution of the secondary antibody and incubated for 1 hr at RT with rotational shaking. […] Plates were then washed again 4x in 150 µl in MSD wash buffer and 25 μl of a 1:50 dilution of Goat anti-rabbit Sulfo-Tag (MSD, Cat# R32AB-1) in MSD blocking buffer was added and the plates incubated for 1 h at RT with rotational shaking. After a final wash step, 150 μl Read Buffer T4X (MSD, Cat# R92-TC2) was added and the plate read using the MSD QuickPlex SQ 120 plate reader.

[5] = molecular target: T2, eIF4E major variant (D127) (Homo sapiens, UniProt P06730); type: binding; details: for LE (ligand efficiency) / Kd: major variant D127 (values in parentheses); for Kd: read-out: eIF4E Kd
T2 construct: made in house; host or cells: E. coli (as described for clone 2983)
Experimental: ITC experiments were performed on either a MicroCal VP-ITC or a MicroCal Auto-ITC200 at 25 °C in a buffer comprising 50 mM HEPES, 100 mM NaCl, 1 mM TCEP and 5% DMSO at pH 7.5. Typical titrations on the MicroCal VP-ITC were performed using 17 × 16.4 µL injections with a 250 s spacing between each injection and with a stirring speed of 307 rpm. Typical titrations on the MicroCal Auto-ITC200 were performed using 12 × 3 µL injections with a 150 s spacing between each injection and with a stirring speed of 750 rpm. ITC data analyses were performed with Origin 7.0 software using the “One Set of Sites” model.

[6] = molecular target: T3, endogenous eIF4E:eIF4G interaction (Homo sapiens, UniProt P06730); experiment: Electro-chemiluminescent eIF4E:eIF4G assay after treatment of intact H1299 cells; type: cell-based; details: 100 µM; for disruption of eIF4E:eIF4G binding in intact cells: 16 hr; for endogenous eIF4E:eIF4G interaction in intact cells, electro-chemiluminescent signal, Average: H1299
T3 construct: endogenous in cells; host or cells: HeLa, SW620 or H1299 cells (lysates; intact H1299 cells in A13)

[7] = molecular target: T4, 4E-BP1 binding to eIF4E (Homo sapiens, UniProt P06730); experiment: Co-immunoprecipitation with eIF4E antibody, immunoblot for 4E-BP1, SW620 lysates; type: biochemical; details: 1–100 µM, 30 min
T4 construct: endogenous in cells; host or cells: SW620 cell lysates
T4 sequence (P06730 2-217 limits assumed): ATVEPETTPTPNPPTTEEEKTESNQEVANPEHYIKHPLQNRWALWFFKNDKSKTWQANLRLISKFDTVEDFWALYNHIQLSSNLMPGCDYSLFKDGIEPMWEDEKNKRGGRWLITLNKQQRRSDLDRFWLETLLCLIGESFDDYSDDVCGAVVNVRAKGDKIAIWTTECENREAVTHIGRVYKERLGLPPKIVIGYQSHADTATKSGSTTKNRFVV
Experimental: as §1, §2

T2 sequence (P06730 with tags, fused parts or gaps): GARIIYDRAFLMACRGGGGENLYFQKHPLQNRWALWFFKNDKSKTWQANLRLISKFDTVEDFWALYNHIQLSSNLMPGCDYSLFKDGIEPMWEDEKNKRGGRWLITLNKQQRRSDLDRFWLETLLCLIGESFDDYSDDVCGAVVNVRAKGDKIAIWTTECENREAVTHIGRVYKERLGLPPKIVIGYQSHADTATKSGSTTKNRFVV
T3 sequence (P06730 2-217 limits assumed): as the sequence (P06730 2-217 limits assumed) above
Sequence of eIF4E:eIF4G interaction (P06730 2-217 limits assumed): as above
T1 sequence (P06730 2-217 limits assumed): as above

Row | SMILES | effect on eIF4G binding to eIF4E (co-immunoprecipitation) [2] | rLuc (IRES) luminescence normalized to DMSO control, Average ([3]; 1 μM) | rLuc (IRES) luminescence normalized to DMSO control, Average ([3]; 10 μM) | rLuc (IRES) luminescence normalized to DMSO control, Average ([3]; 100 μM) | endogenous eIF4E:eIF4G interaction, electro-chemiluminescent signal, Average ([4]; 0.1 μM) | endogenous eIF4E:eIF4G interaction, electro-chemiluminescent signal, Average ([4]; 1 μM) | endogenous eIF4E:eIF4G interaction, electro-chemiluminescent signal, Average ([4]; 10 μM) | endogenous eIF4E:eIF4G interaction, electro-chemiluminescent signal, Average ([4]; 100 μM) | LE (ligand efficiency) [5] | Kd ([5]; ITC) | disruption of eIF4E:eIF4G binding in intact cells [6] | endogenous eIF4E:eIF4G interaction in intact cells, electro-chemiluminescent signal, Average ([6]; 6hr, control 1641896.8) | endogenous eIF4E:eIF4G interaction in intact cells, electro-chemiluminescent signal, Average ([6]; 16hr, control 1700881.1) | effect on 4E-BP1 binding to eIF4E (co-immunoprecipitation) [7] | further results
1 | CC[C@H](O[C@H](C)CO)c1ccc(-c2ccccc2F)cc1NCCO [Compound 4] | disrupted eIF4G binding to eIF4E | 97.0% | 85.6% | 88.7% | 820654.4 | 641951.8 | 429514.6 | 347571.1 | 0.38 (kcal/mol)/heavy atom | 90 nM | significantly disrupt eIF4E:eIF4G binding | 1444726.0 | 549014.1 | did not disrupt 4E-BP1 binding to eIF4E | proliferation on co-treatment ([1]; C3-1 or L85R rescue line): no additional loss of proliferation or MCL1 expression; proliferation on co-treatment ([1]; W73F mutant model): significant combinatorial effect on proliferation; effect on proliferation ([1]; 25 μM, absence of dTAG^V-1, C3-1, W73F and L85R models): no effect on the MCL1 biomarker or proliferation; effects on cell growth, control combination ([1]; compound 4 with neg-dTAG^V-1): no significant effects; sensitisation on co-treatment ([1]; with dTAG^V-1, W73F mutant model): ≈ 50%; EC50 ([3]; HeLa in vitro translation, 30 min, read-out: effect on IRES-driven translation): > 100000 nM; EC50 ([4]; read-out: EC50, eIF4G:eIF4E binding): ~1500 nM; enthalpy DH ([5]; ITC, eIF4E D127): -10.2 kcal/mol; entropic penalty -TDS ([5]; ITC, eIF4E D127): 0.6 ± 0.4 kcal/mol
2 | CC[C@@H](O[C@H](C)CO)c1ccc(-c2ccccc2F)cc1NCCO [Compound 5] | limited effect | 100.6% | 89.2% | 98.4% | 815674.7 | 773437.1 | 757778.5 | 644050.9 | - (0.3) (kcal/mol)/heavy atom | 3000 nM | some limited evidence of activity | 1584729.4 | 1071107.1 | limited effect | effects on cell growth, control combination ([1]; compound 5 with dTAG^V-1): no significant effects; effect on cap-independent IRES-driven translation ([3]; 1, 10, 100 µM): no significant effect; inhibition of eIF4G:eIF4E binding ([4]; 100 µM): ~ 10%; reduced binding affinity by ITC ([5]; compound 5 versus compound 4): 30 fold
3 | CC[C@H](C(=O)N1CCCC[C@H]1C(=O)O[C@H](CCc1ccc(OC)c(OC)c1)c1ccccc1OCC(=O)NCCCCCCC(=O)N[C@H](C(=O)N1C[C@H](O)C[C@H]1C(=O)N[C@@H](C)c1ccc(-c2scnc2C)cc1)C(C)(C)C)c1cc(OC)c(OC)c(OC)c1 [dTAG^V-1] | – | – | – | – | – | – | – | – | – | – | – | – | – | – | growth of eIF4E-dTAG clones ([1]; treatment for 6 days, 0.5 or 1 µM): inhibited growth of all 4 clones
